Assays:
3T3-L1 cells = details: Garcés et al. 1997; cited from earlier work
Transformed cells = details: Table 2, hybrid polar compounds; cited from earlier work
[1] = tested on: MEL murine erythroleukemia cells; design: key: +: Compound induces terminal differentiation of the transformed cells; details: terminal differentiation; cited from earlier work
[2] = tested on: HL-60 human promyelocytic leukemia cells; design: key: +: Compound induces terminal differentiation of the transformed cells; details: terminal differentiation; cited from earlier work
[3] = tested on: HT-29 human colon cancer cells; design: key: +: Compound induces terminal differentiation of the transformed cells; details: terminal differentiation; cited from earlier work
MEL cells [4] = details: cited from earlier work; for HG cells, % (% of cells hemoglobinized): Table 3, at optimal concentration; for Opt. [ ], μM (Optimal concentration): Table 3
MEL cells [5] = test: Late apoptotic fraction (sub-G1 peak) and viability of S-oligo treated MEL cells, flow cytometry; format: cell-based, mouse
Procedure: (§1) The late apoptotic fraction (sub-G1 peak) in cells treated with Lin-12 sense, antisense and scrambled S-oligos in the presence of HMBA was determined by flow cytometry (FIG. 11B). […] The Lin-12 antisense S-oligo, but not the sense or scrambled control, decreased expression of Notch-1 protein by 50-75% at 48 hours in three experiments. […] Actin expression was also unaffected by a transfected 1100 bp construct in a plasmid, as discussed below in Example 11.
Parental MEL or transfected clones were synchronized for cell cycle analysis experiments by density arrest (Ryan et al., Mol. Cell Biol. 1993, 13:711-719). At this point, cells were plated at 1×10^5 cells/ml in medium containing 5 mM HMBA. For the transfected clones, 700 μg/ml G418 was added to the medium. At 16 hours, cells were harvested, fixed in 1% paraformaldehyde for 15 minutes and then 70% ethanol overnight. Cells were resuspended, at constant cell density, in PI solution (50 μg/ml PI (propidum iodide), 0.1% Triton-X-100, 200 μg/ml RNAase A) for 1 hour at room temperature with mixing. […] The DNA content of cells was determined using a Becton Dickinson FACScan flow cytometer. Cells appearing as a sub-G1 peak were scored as apoptotic. In cell cycle analyses, apoptotic and dead cells were gated out and only the viable population was analyzed.

Notch-1 protein = Notch-1 protein expression in S-oligo treated MEL cells; format: cell-based, mouse; details: at 48 hours, three experiments
Procedure: as §1
Cell pellets were solubilized in hot 2×SDS sample buffer containing 10% β-ME and analyzed by 4% SDS/PAGE. Proteins were electroblotted to Immobilon P (Millipore) in 10 mM CAPS with 10% methanol at 0.75 A for 5 hours. Notch-1 proteins were detected using a chemiluminescence Western blotting kit (Boehringer Mannheim) according to manufacturer's instructions. Relative band intensities were determined by the Kodak 1-D analysis software.

actin = test: Actin levels in S-oligo treated MEL cells; format: cell-based, mouse; details: sense, antisense and scrambled compared
Procedure: as §1

SY5Y cells = test: SY5Y cell survival with S-oligos and antineoplastic agent (CellTiter 96 AQueous assay); format: cell-based, human; details: 50 ng/ml agent, S-oligos 25-100 μM, 1 μM RA
Procedure: SY5Y cells, a neuroblastoma cell line (Example 3) were split into 96 well plates and grown in RPMI 1640 with glutamine, 10% FCS and 1 μM RA. At approximately 60% confluence, the phosphorothioate oligonucleotides (S-oligos, antisense, sense and scrambled; see Example 10) at various concentrations (25, 50, 75 and 100 μM) were added. Subsequently, 50 ng/ml of vinblastine (Sigma, St. Louis Mo., V-1377) was added to half of the wells (based on preliminary dose ranging experiments). Cell survival was measured using Promega's CellTiter 96 AQueous assay, which measures viable cells in the well. Paclitaxel (Sigma, St. Louis Mo., T-1912), another member of the […], was also tested (at 50 ng/ml) using this same assay.

MEL cells [6] = test: HMBA-induced MEL cell differentiation, benzidine staining for hemoglobin; format: cell-based, mouse; details: 5 mM HMBA, at 120 hours
Procedure: Murine erythroleukemia Friend cells (MEL), were maintained in RPMI supplemented with 10% (v/v) heat inactivated fetal bovine serum (HyClone) and 10^−5 M β-mercaptoethanol (β-ME). To induce differentiation, logarithmically growing cells were plated at 1×10^5 cells/ml in medium containing 5 mM HMBA for 120 hours. Cells were passaged to initial density at 72 hours. Cells were assayed for the presence of hemoglobin (Orkin et al., Proc. Natl. Acad. Sci. USA 1975, 72:98-102) by the addition of 1/10 volume of freshly prepared benzidine reagent (0.4% benzidine base, 2% hydrogen peroxide in 12% acetic acid). Benzidine positive cells were counted in modified Neubauer hemocytometers. Each sample was counted by two independent operators, blinded to the cell treatment, and readings were averaged.
The accumulation of differentiated cells, as determined by benzidine staining, was analyzed during the 120 hours of culture with HMBA (FIG. 8C). There was a steady increase in differentiated cells from 48 hours onwards, that generally reached 35-45%, at 120 hours. […] Cultures were not continued beyond 120 hours, because at this time Notch-1 was reproducibly undetectable.

Notch-1 = Notch-1 mRNA and protein expression in MEL cells with HMBA (RT-PCR, western blot); format: cell-based, mouse; details: 5 mM HMBA, 4 to 120 hours
Procedure: Total RNA was extracted from cells using Trizol reagent (Life Technologies). RT-PCR was performed using the Thermostable Reverse Transcriptase RNA PCR kit (Perkin Elmer) according to manufacturer's instructions. Reactions were amplified in a Perkin Elmer 2400 DNA thermal cycler for 40 cycles of denaturation at 94° C. for 1 minute, annealing and extension at 65° C. for 2 minutes. Amplification of mouse primers specific for Notch-1, SEQ ID NO 1, and SEQ ID NO 2, generated a product of 431 bp. Primers specific for GAPDH: sense 5′ TCACCACCATGGAGAAGG 3′ (SEQ ID NO 3) and antisense 5′ […] 3′ (SEQ ID NO 4) generated a 200 bp product. Negative and positive PCR controls were included in every experiment.
To determine whether Notch-1 expression is regulated during HMBA-induced MEL cell differentiation, Notch-1 mRNA levels were analyzed in MEL cells set up at equal density and maintained in culture for 4, 8, 24 or 120 hours in the absence or presence of HMBA.
Notch-1 steady state protein levels were determined by western blot using the polyclonal antibody to Notch-1 (see Example 2). […] Notch-1 steady state protein levels reflected the Notch-1 mRNA pattern of expression. In the presence of HMBA (H), Notch-1 protein was reproducibly evident in the early stages of induction, but gradually disappeared becoming essentially undetectable at 120 hours. […] In uninduced MEL cells (C). […]

[7] = patients; cited from earlier work
thymocytes = test: Apoptosis of thymocytes from Notch-1 antisense transgenic mice after dexamethasone; format: cell-based, mouse; details: thymocytes of Notch-1 antisense transgenic mice, pharmacologic dose
Source text: A pMAMneo plasmid was used which contained the same insert that was used in the pcDNA 3.1 plasmid that was introduced into the MEL cells. This construct expresses the antisense under a MMTV LTR promoter, which has good basal activity and is stimulated by several steroid hormones, such as estradiol, glucocorticoids and androgens. The plasmid was linearized, purified, and microinjected into mouse embryos which were then implanted into surrogate mothers. Pups were screened for the presence of the transgene by PCR on tail snippets. This was done on two separate instances, which generated one positive founder male and one positive founder female containing Notch-1 antisense in their genomes. The founder animals were separately bred into a C57bl6 background for several generations until homozygous positive mice were obtained which bred true (generated all positive litters).
Pharmacological stimuli were used to induce apoptosis more readily in thymocyte cells from these mice.
Thymocytes undergo differentiation in the thymus, and normally express Notch-1. Spontaneous apoptosis levels in thymocytes were not increased, but apoptosis and cell death levels were increased about 50% by a pharmacologic dose of dexamethasone, a steroid used for the treatment of T-cell leukemias which induces rapid terminal differentiation and death in thymocytes. […]

rh11-12: human recombinant Notch-1 EGF-repeats 11 and 12, 6-Histidine tagged, expressed in E. coli
effect on differentiation of 3T3-L1 cells (3T3-L1 cells): blocked their differentiation

CNC(=O)CCCCCCCCC(=O)NC
Opt. [ ], μM (Optimal concentration) (Transformed cells): 5,000 μM | Transformed cells MEL [1]: + | Transformed cells HL-60 [2]: + | Transformed cells HT-29 [3]: +

O=C(CCCCCCC(=O)NO)NO [SBHA]
HG cells, % (% of cells hemoglobinized) (MEL cells [4]): 94% | Opt. [ ], μM (Optimal concentration) (MEL cells [4]): 30 µM

O=C(/C=C/c1ccc(C(=O)NO)cc1)NO
Opt. [ ], μM (Optimal concentration) (Transformed cells): 10 to 60 µM | Transformed cells MEL [1]: + | Transformed cells HL-60 [2]: + | Transformed cells HT-29 [3]: +

AGACTGCGTGCAGTTCTTCCAGG (all phosphorothioate, sugars by position and methylation of C not given here) [Lin-12 antisense S-oligo, phosphorothioate antisense oligo for the Lin/Notch region of Notch-1]
late apoptotic fraction (sub-G1 peak) (MEL cells [5]; 25 μM S-oligo in the presence of HMBA, 120 hours): significantly larger effect than either sense (SEN) or scrambled (SCR) controls | viability (cells within G1, G2/S or M regions) (MEL cells [5]; S-oligo in the presence of HMBA): parallel decrease in viability | decrease of Notch-1 protein expression (Notch-1 protein): 50-75% | actin levels (actin): No difference in actin levels

O=C(CCCCCNC(=O)Nc1cccc(Cl)c1)NO [3-Cl-UCHA]
HG cells, % (% of cells hemoglobinized) (MEL cells [4]): 32% | Opt. [ ], μM (Optimal concentration) (MEL cells [4]): 4.0 µM

CC(/C=C/C(=O)NO)=C\[C@@H](C)C(=O)c1ccc(N(C)C)cc1 [TSA]
HG cells, % (% of cells hemoglobinized) (MEL cells [4]): 80% | Opt. [ ], μM (Optimal concentration) (MEL cells [4]): 0.075 µM

CC(=O)O[C@H]1C(=O)[C@@]2(C)[C@H]([C@H](OC(=O)c3ccccc3)[C@]3(O)C[C@H](OC(=O)[C@H](O)[C@@H](NC(=O)c4ccccc4)c4ccccc4)C(C)=C1C3(C)C)[C@]1(OC(C)=O)CO[C@@H]1C[C@@H]2O [Paclitaxel]
cell survival, antineoplastic agent combined with Notch-1 antisense S-oligos (SY5Y cells): cell survival was decreased to a greater extent

O=C(/C=C/c1cccc(C(=O)NO)c1)NO [CBHA, m-carboxycinnamic acid bishydroxamide]
HG cells, % (% of cells hemoglobinized) (MEL cells [4]): 73% | Opt. [ ], μM (Optimal concentration) (MEL cells [4]): 4.0 µM

CC[C@]1(O)C[C@@H]2CN(CCc3c([nH]c4ccccc34)[C@@](C(=O)OC)(c3cc4c(cc3OC)N(C)[C@H]3[C@@](O)(C(=O)OC)[C@H](OC(C)=O)[C@]5(CC)C=CCN6CC[C@]43[C@@H]65)C2)C1 [vinblastine]
cell survival, antineoplastic agent combined with Notch-1 antisense S-oligos (SY5Y cells): cell survival was decreased to a greater extent

CC(=O)NCCCCCCCCNCC=O
Opt. [ ], μM (Optimal concentration) (Transformed cells): 5,000 μM | Transformed cells MEL [1]: + | Transformed cells HL-60 [2]: + | Transformed cells HT-29 [3]: +

CC(=O)NCCCCCCNC(C)=O [HMBA, hexamethylene bisacetamide]
differentiated (benzidine-positive) cells (MEL cells [6]): 35-45% | effect on Notch-1 expression pattern (Notch-1): causing an early increase in Notch-1 followed by a progressive decline | HG cells, % (% of cells hemoglobinized) (MEL cells [4]): 95% | Opt. [ ], μM (Optimal concentration) (MEL cells [4]): 5,000 μM | adverse effect of therapy [7]: can result in thrombocytopenia

O=C(CCCCCCCCC(=O)NO)NO
Opt. [ ], μM (Optimal concentration) (Transformed cells): 10 to 60 µM | Transformed cells MEL [1]: + | Transformed cells HL-60 [2]: + | Transformed cells HT-29 [3]: +

C[C@@H]1C[C@H]2[C@@H]3CCC4=CC(=O)C=C[C@]4(C)[C@@]3(F)[C@@H](O)C[C@]2(C)[C@@]1(O)C(=O)CO [dexamethasone]
increase of apoptosis and cell death levels (thymocytes): about 50%

O=C(CCCCCCC(=O)Nc1ccccc1)NO [SAHA, Suberoylanilide hydroxamic acid]
HG cells, % (% of cells hemoglobinized) (MEL cells [4]): 68% | Opt. [ ], μM (Optimal concentration) (MEL cells [4]): 2.5 µM
